From patent US20100152188A1, “Novel Heterocyclic Compounds” (priority 2005, published 2010)

How the values were obtained:
HDAC = HDAC inhibition; assay type: biochemical; conditions: for HDAC Inhibition 1 μM: compound at 1 μM; for HDAC Inhibition 10 μM: compound at 10 μM
NCIH460 = experiment: Anti-cancer screen (MTT), NCIH460; assay type: cell-based; conditions: Homo sapiens, NCI-H460, 48 hours with compound, tested at 0.01-100 µM
Outline: (§1)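 Growth inhibition is measured by MTT reduction after 48 h treatment of cells grown in DMEM with 10% fetal bovine serum. Percent growth uses T0 viability, measured just before dosing, so that net cell kill yields negative values and an LC50.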

HCT116 = experiment: Anti-cancer screen (MTT), HCT116; assay type: cell-based; conditions: Homo sapiens, HCT-116, 48 hours with compound, tested at 0.01-100 µM
Outline: as §1

MDAMB-231/U 251 = experiment: Anti-cancer screen (MTT), MDAMB-231/U 251; assay type: cell-based; conditions: for CC50: 48 h, read-out: MDAMB-231/U 251 LC50; for GI50 / IC (TGI): 48 hours with compound, MTT, tested at 0.01-100 µM
Outline: as §1

[1] = tested on: NCIH460, HCT116, MDAMB-231/U 251; experiment: Anti-cancer screen, mean GI50 over the cell lines; assay type: cell-based; conditions: in µM
Outline: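 HCT116, NCIH460 and U251 cells (5000/well) were seeded for 24 h, then exposed in triplicate to 0.01, 0.1, 1, 10 and 100 µM final compound for 48 h. Viability was read by MTT (3 h, absorbance 570 nm), and percent growth was calculated against untreated controls and a T0 plate read at compound addition.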

Compound | HDAC Inhibition 1 μM (HDAC) | HDAC Inhibition 10 μM (HDAC) | melting point | GI50 (NCIH460) | IC (TGI) (NCIH460) | LC50 (NCIH460) | GI50 (HCT116) | IC (TGI) (HCT116) | LC50 (concentration giving 50% net cell kill relative to T0) (HCT116) | CC50 (MDAMB-231/U 251) | GI50 (MDAMB-231/U 251) | IC (TGI) (MDAMB-231/U 251) | Mean GI50 [1] | IC50 (HDAC)
O=C(NCc1ccc(C(=O)N2CCN(c3ncccn3)CC2)cc1)OCc1cccs1 [Example 72, 2-Thienylmethyl{4-[(4-pyrimidin-2-ylpiperazin-1-yl)carbonyl]benzyl}carbamate] | 8.08 | 8.40 | 143.6 to 144.6 °C |  |  |  |  |  |  |  |  |  |  | 
O=C(NCc1ccc(C(=O)N2CCN(c3ccccn3)CC2)cc1)OCc1cccs1 [Example 71, 2-Thienylmethyl{4-[(4-pyridin-2-ylpiperazin-1-yl)carbonyl]benzyl}carbamate] | 9.14 | 7.67 | 129.3 to 130.3 °C |  |  |  |  |  |  |  |  |  |  | 
O=C(NCc1ccc(C(=O)N[C@@H](Cc2ccc(O)cc2)C(=O)NO)cc1)OCc1cccs1 [Example 100, 2-Thienylmethyl[4-({[2-(hydroxyamino)-1-(4-hydroxybenzyl)-2-oxoethyl]amino}carbonyl)benzyl]carbamate] | 13.63 | 40.64 | 162.6 to 163.4 °C |  |  |  |  |  |  |  |  |  |  | 
O=C(NCc1ccc(C(=O)N2CCC[C@H]2C(=O)NO)cc1)OCc1cccs1 [Example 99, 2-Thienylmethyl[4-({(2S)-2-[(hydroxyamino)carbonyl]pyrrolidin-1-yl}carbonyl)benzyl]carbamate] |  |  | 90.6 to 91.5 °C |  |  |  |  |  |  |  |  |  |  | 
O=C(NCc1ccc(C(=O)NO)cc1)OCc1nc2ccccc2[nH]1 [Example 33, 1H-Benzimidazol-2-ylmethyl{4-[(hydroxyamino)carbonyl]benzyl}carbamate] | 82.77 | 92.11 |  | 1 µM | 68 µM | > 100 µM | 4.5 µM | 20 µM | > 100 µM | 60 µM | 3 µM | 8 µM | 2.8 | 0.25 µM
O=C(Cc1csc(NC(=O)OCc2nc3ccccc3s2)n1)NO [Example 9, 1,3-Benzothiazol-2-ylmethyl{4-[2-(hydroxyamino)-2-oxoethyl]-1,3-thiazol-2-yl}carbamate] | 17.52 | 46.21 |  | 73 µM | > 100 µM | > 100 µM | 48 µM | > 100 µM | > 100 µM | > 100 µM | 38 µM | > 100 µM | 53 | 
Nc1ccccc1NC(=O)Cc1csc(NC(=O)OCc2ccncc2)n1 [Example 24, Pyridin-4-ylmethyl(4-{2-[(2-aminophenyl)amino]-2-oxoethyl}-1,3-thiazol-2-yl)carbamate] | 1.34 | 3.17 |  | > 100 µM | > 100 µM | > 100 µM | > 100 µM | > 100 µM | > 100 µM | > 100 µM | > 100 µM | > 100 µM | >100 | 
O=C(Cc1csc(NC(=O)OCc2cccnc2)n1)Nc1ccccc1O [Example 19, Pyridin-3-ylmethyl(4-{2-[(2-hydroxyphenyl)amino]-2-oxoethyl}-1,3-thiazol-2-yl)carbamate] |  | 0.50 |  | 1 µM | 60 µM | > 100 µM | 34 µM | > 100 µM | > 100 µM | > 100 µM | 7.6 µM | 80 µM | 14.2 | 
O=C(Cc1csc(NC(=O)OCc2cccnc2)n1)NO [Example 1, pyridin-3-ylmethyl{4-[2-(hydroxyamino)-2-oxoethyl]-1,3-thiazol-2-yl}carbamate] | 1.3 | 31.5 |  | 0.01 µM | 0.5 µM | > 100 µM | 0.25 µM | 4 µM | > 100 µM | > 100 µM | 1 µM | > 100 µM | 0.4 | 
O=C(NCc1ccc(C(=O)N2CCN(c3ncccn3)CC2)cc1)OCc1nccs1 [Example 68, 1,3-thiazol-2-ylmethyl{4-[(4-pyrimidin-2-ylpiperazin-1-yl)carbonyl]benzyl}carbamate] | 11.14 | 5.80 |  | 33 µM | > 100 µM | > 100 µM | 9 µM | > 100 µM | > 100 µM | > 100 µM | 0.2 µM | 21 µM | 14.1 | 
